According to the NIST ThermoML archive (doi:10.1016/j.jct.2010.08.002):
Numbers after ± are expanded uncertainties.

Conditions: for mass density: Liquid

COP(=O)([O-])OC.Cn1cc[n+](C)c1 [1,3-dimethylimidazolium dimethylphosphate]
surface tension liquid-gas (293.15 K): 47.42 ± 1.6 mN/m
mass density (293.15 K): 1244 ± 5.7 kg/m3
surface tension liquid-gas (298.15 K): 47.09 ± 1.6 mN/m
mass density (298.15 K): 1242 ± 5.7 kg/m3
surface tension liquid-gas (303.15 K): 47.11 ± 1.6 mN/m
mass density (303.15 K): 1238.7 ± 5.6 kg/m3
surface tension liquid-gas (308.15 K): 46.28 ± 1.6 mN/m
mass density (308.15 K): 1234.9 ± 5.5 kg/m3
surface tension liquid-gas (313.15 K): 45.11 ± 1.6 mN/m
mass density (313.15 K): 1229.7 ± 5.5 kg/m3
surface tension liquid-gas (318.15 K): 44.44 ± 1.6 mN/m
mass density (318.15 K): 1226.8 ± 5.4 kg/m3
surface tension liquid-gas (323.15 K): 43.01 ± 1.5 mN/m
mass density (323.15 K): 1223.9 ± 5.4 kg/m3
surface tension liquid-gas (328.15 K): 42.58 ± 1.5 mN/m
mass density (328.15 K): 1218.5 ± 5.3 kg/m3
surface tension liquid-gas (333.15 K): 41.88 ± 1.5 mN/m
mass density (333.15 K): 1214.8 ± 5.2 kg/m3
surface tension liquid-gas (338.15 K): 41.33 ± 1.4 mN/m
mass density (338.15 K): 1210.4 ± 5.1 kg/m3

CCOP(=O)([O-])OCC.CCn1cc[n+](C)c1 [1-ethyl-3-methylimidazolium diethyl phosphate]
surface tension liquid-gas (293.15 K): 36.1 ± 1.3 mN/m
mass density (293.15 K): 1141.3 ± 3.9 kg/m3
surface tension liquid-gas (298.15 K): 35.88 ± 1.3 mN/m
mass density (298.15 K): 1140 ± 3.9 kg/m3
surface tension liquid-gas (303.15 K): 35.43 ± 1.3 mN/m
mass density (303.15 K): 1132.1 ± 3.8 kg/m3
surface tension liquid-gas (308.15 K): 35.3 ± 1.3 mN/m
mass density (308.15 K): 1129.7 ± 3.7 kg/m3
surface tension liquid-gas (313.15 K): 35.07 ± 1.3 mN/m
mass density (313.15 K): 1125.1 ± 3.7 kg/m3
surface tension liquid-gas (318.15 K): 34.61 ± 1.2 mN/m
mass density (318.15 K): 1120.4 ± 3.6 kg/m3
surface tension liquid-gas (323.15 K): 34.55 ± 1.2 mN/m
mass density (323.15 K): 1118 ± 3.5 kg/m3
surface tension liquid-gas (328.15 K): 34.21 ± 1.2 mN/m
mass density (328.15 K): 1112.9 ± 3.5 kg/m3
surface tension liquid-gas (333.15 K): 33.88 ± 1.2 mN/m
mass density (333.15 K): 1111.1 ± 3.4 kg/m3
surface tension liquid-gas (338.15 K): 33.75 ± 1.2 mN/m
mass density (338.15 K): 1108 ± 3 kg/m3
